# Measurements as given in patent US9566262B2, “Itch suppression by fucoxanthin” (THE RITSUMEIKAN TRUST, priority 2015, dated 2017).
# Tests used:
# GATA-luc = experiment: Luciferase reporter assay in HEK293 cells; assay type: cell-based; conditions: HEK293, treated 3 hours after transfection for 48 hours, vs DMSO (fucoxanthin 0.1, 1, 10 μM)
# Text: The plasmids pGL3-Cebpα promoter-luc and pGL3-Mitf1 promoter-luc were provided by Dr. Hua Huang (University of Colorado school, Denver, USA). The plasmid NF-κB-luc was purchased from Agilent Technologies (Santa Clara, Calif.). The GATA-responsive reporter vector was provided by Dr. Ishijima (Takasaki University of Health and welfare, Gunma, Japan). Three GATA motifs from mouse α-1 globulin gene (5′-TGATAA-3′) were tandemly inserted into Sma I site of pRBGP3. HDC promoter was provided by Dr. Ootsu (Tohoku University school of Medicine, Sendai, Japan) and cloned into Kpn I-Hind III site of pGL4.10 (Hdc promoter-luc). The reporter assay was performed according to the method described in Kanatani, N. et al. Briefly, HEK293 cells were transfected with each of the luciferase constructs (0.2 μg) or pRL-CMV (Promega, Madison, Wis.) (0.001 μg). At 3 hours after transfection, the cells were treated with fucoxanthin (0.1 μM, 1 μM or 10 μM) or DMSO for 48 hours and reporter assay was performed using Dual-Luciferase® Reporter Assay System (Promega). Luciferase activity was measured using luminometer model TD20/20n (Turner BioSystems, Sunnyvale, Calif.) and normalized to Renilla luciferase activity expressed by CMV promoter.
# GATA-reporter assay was performed using HEK293 cells expressing GATA-luc prepared in Example 8, in the same manner as described in Example 8 except using various carotenoids (fucoxanthin, astaxanthin, lycopene, β-carotene or retinoic acid) in place of fucoxanthin.
# [1] = tested on: bone marrow-derived mast cells (BMMCs); experiment: Granule formation in BMMCs, tryptase immunostaining; assay type: cell-based, mice; conditions: 10 μM, vs control-treated cells
# Description: Mature mast cells were prepared in the same manner as described in Example 5. The BMMCs obtained were mounted on a glass slide and heat-fixed. The analysis of the preparation was performed according to the method described in Kosaka, T., Fukui, R., Matsui, M. et al. (2014) “RAGE, Receptor of Advanced Glycation Endoproducts, Negatively Regulates Chondrocytes Differentiation.” PLoS ONE 9(10): e108819. Briefly, the cells were reacted with a mouse anti-mast cell tryptase antibody (AB2378, Abcam, Tokyo, Japan) and then reacted with an FITC-conjugated anti-mouse IgG (Santa Cruz Biotechnology, Inc.) and 1 μg/mL DAPI (4′,6-diamino-2-phenylindole dihydrochloride). The fluorescent image was analyzed by EVOS® FL Cell Imaging System (Life Technologies Corp).
# To confirm where the effect of fucoxanthin on granule formation in mast cells is specific rather than common to carotenoids, we compared granule formation between fucoxanthin-treated and astaxanthin-treated BMMCs by immunostaining of tryptase. The immunostaining assay was performed in the same manner as described in Example 6.
# NC/Nga mice [2] = experiment: Transdermal water loss (TEWL) in the skin of NC/Nga mice; assay type: in vivo; conditions: topical application plus PiCl, at 5 weeks, vs Vaseline
# Description: Transdermal water loss (TEWL) in the skin of the mice treated with fucoxanthin was also measured and compared with that in the skin of the mice treated with tacrolimus.
# NC/Nga mice [3] = experiment: Swelling (length) of the auricular lymph node in NC/Nga mice; assay type: in vivo; conditions: topical application for 5 weeks, PiCl-sensitized, vs Vaseline
# Text: (§1) NC/Nga mice (5 weeks old, female) were purchased from Japan SLC, Inc. […] On day 12, day 19, day 26 and day 33 after starting application of Vaseline or fucoxanthin, 0.8% picryl chloride (PiCl) was further applied to the back skin of the mice. The behaviors of the mice were observed by video monitoring. On day 34 after starting application of Vaseline or fucoxanthin, bromodeoxyuridine (BrdU, Nacalai Tesque) (0.[…] weight) was intraperitoneally administered to the mice. At 5 weeks after starting application of Vaseline or fucoxanthin, the time each mouse spent for scratching behavior in 10 minutes was measured by video monitoring. Then, the mice were sacrificed and the auricular lymph node, blood and skin were obtained. Serum IgE content was determined by enzyme-linked immunosorbent assay (ELISA) using Mouse IgE Assay Kit (Morinaga Institute of Biological Science, Inc.). […] BrdU uptake was determined by ELISA using Cell Proliferation ELISA, BrdU (Colorimetric) (Roche Diagnostics K.K.). […] Also, serum IgE levels and swelling of the auricular lymph nodes of the mice were determined in the same manner as described in Example 2.
# NC/Nga mice [4] = experiment: Clinical symptoms of dermatitis in PiCl-sensitized NC/Nga mice; assay type: in vivo; conditions: topical application plus PiCl, at 5 weeks
# Description: Next, we examined the effects of fucoxanthin and astaxanthin on clinical symptoms of dermatitis in NC/Nga mice. In the same manner as described in Example 2, fucoxanthin or astaxanthin and PiCl were applied to NC/Nga mice. […] In the same manner as described in Example 2, Vaseline, fucoxanthin or tacrolimus and PiCl were applied to NC/Nga mice. […] Also, serum IgE levels and swelling of the auricular lymph nodes of the mice were determined in the same manner as described in Example 2.
# NC/Nga mice [5] = experiment: Serum IgE content by ELISA in NC/Nga mice; assay type: in vivo; conditions: topical application for 5 weeks, PiCl-sensitized, vs Vaseline
# Text: as §1
smiles,measurement,setting,value
CC(C)=CCC/C(C)=C/C=C/C(C)=C/C=C/C(C)=C/C=C/C=C(C)/C=C/C=C(C)/C=C/C=C(\C)CCC=C(C)C [lycopene],GATA-luc expression,GATA-luc,not downregulated
"CC1=C(/C=C/C(C)=C/C=C/C(C)=C/C=C/C=C(C)/C=C/C=C(C)/C=C/C2=C(C)C(=O)[C@@H](O)CC2(C)C)C(C)(C)C[C@H](O)C1=O [astaxanthin, reference compound]",granule formation (tryptase-positive cells / immunoreactivity against tryptase),[1],not significantly reduced
same,GATA-luc expression,GATA-luc,not downregulated
CC1=C(/C=C/C(C)=C/C=C/C(C)=C/C=C/C=C(C)/C=C/C=C(C)/C=C/C2=C(C)CCCC2(C)C)C(C)(C)CCC1 [β-carotene],GATA-luc expression,GATA-luc,rather upregulated
"C=CC[C@@H]1/C=C(\C)C[C@H](C)C[C@H](OC)[C@H]2O[C@@](O)(C(=O)C(=O)N3CCCC[C@H]3C(=O)O[C@H](/C(C)=C/[C@@H]3CC[C@@H](O)[C@H](OC)C3)[C@H](C)[C@@H](O)CC1=O)[C@H](C)C[C@@H]2OC [tacrolimus, reference compound]",transdermal water loss (TEWL),NC/Nga mice [2],did not affect TEWL
same,swelling of the auricular lymph node (ear swelling),NC/Nga mice [3],neither ear swelling (FIG. 9A) nor serum IgE level (FIG. 9B) were affected
same,clinical symptoms of dermatitis (AD symptoms),NC/Nga mice [4],protected AD symptoms partially
same,serum IgE level,NC/Nga mice [5],neither ear swelling (FIG. 9A) nor serum IgE level (FIG. 9B) were affected
